In patent US20240285552A1 (priority 2020, published 2024):
Residues, ends and D or L forms follow the SMILES beside them. *: point of attachment. Cbz = O=C(OCc1ccccc1)*; CH2F = FC*

Tested on: B.1.617.2 Delta Variant of SARS-CoV-2
Test: microbe, parasite or virus in culture
Type: cell-based

Compound: CC(C)C[C@H](NC(=O)OCc1ccccc1)C(=O)N[C@@H](CC(C)C)C(=O)N[C@@H](Cc1ccc(O)cc1)C(=O)CF [Calpain Inhibitor IV] (Cbz-Leu-Leu-Tyr-CH2F)
- Conc. at Max. % Inhibition: 0.45 µM
- Max. Inhibition: 105.43%
- IC50 (read-out: IC 50 against B.1.617.2 Delta Variant Infection-Induced CPE): 124 nM
